Reference: the supplement of paper PMC13380429

How the values were obtained:
Conditions in all cases: 72 h
Caco-2 [1] = experiment: cell viability relative to DMSO; higher = less toxic
Calu-3 [2] = experiment: as above
HepG2 [3] = experiment: as above
U2OS [4] = experiment: as above
Vero E6 [5] = experiment: as above
Caco-2 [6] = experiment: relative viability EC50 (midpoint between 100% and the lowest measured viability); higher = less toxic
Calu-3 [7] = experiment: as above
HepG2 [8] = experiment: as above
U2OS [9] = experiment: as above
Vero E6 [10] = experiment: as above
Caco-2 [11] = experiment: drug sensitivity score (DSS) for viability; higher = more toxic; extreme values may be limits of the assay
Calu-3 [12] = experiment: as above
HepG2 [13] = experiment: as above
U2OS [14] = experiment: as above
Vero E6 [15] = experiment: as above

Row | Structure (SMILES) | cell viability (Caco-2 [1]; 1 nM) [%] | cell viability (Caco-2 [1]; 10 nM) [%] | cell viability (Caco-2 [1]; 100 nM) [%] | cell viability (Caco-2 [1]; 1000 nM) [%] | cell viability (Caco-2 [1]; 10000 nM) [%] | cell viability (Calu-3 [2]; 1 nM) [%] | cell viability (Calu-3 [2]; 10 nM) [%] | cell viability (Calu-3 [2]; 100 nM) [%] | cell viability (Calu-3 [2]; 1000 nM) [%] | cell viability (Calu-3 [2]; 10000 nM) [%] | cell viability (HepG2 [3]; 1 nM) [%] | cell viability (HepG2 [3]; 10 nM) [%] | cell viability (HepG2 [3]; 100 nM) [%] | cell viability (HepG2 [3]; 1000 nM) [%] | cell viability (HepG2 [3]; 10000 nM) [%] | cell viability (U2OS [4]; 1 nM) [%] | cell viability (U2OS [4]; 10 nM) [%] | cell viability (U2OS [4]; 100 nM) [%] | cell viability (U2OS [4]; 1000 nM) [%] | cell viability (U2OS [4]; 10000 nM) [%] | cell viability (Vero E6 [5]; 1 nM) [%] | cell viability (Vero E6 [5]; 10 nM) [%] | cell viability (Vero E6 [5]; 100 nM) [%] | cell viability (Vero E6 [5]; 1000 nM) [%] | cell viability (Vero E6 [5]; 10000 nM) [%] | relative viability EC50 (Caco-2 [6]) [µM] | relative viability EC50 (Calu-3 [7]) [µM] | relative viability EC50 (HepG2 [8]) [µM] | relative viability EC50 (U2OS [9]) [µM] | relative viability EC50 (Vero E6 [10]) [µM] | drug sensitivity score (Caco-2 [11]) | drug sensitivity score (Calu-3 [12]) | drug sensitivity score (HepG2 [13]) | drug sensitivity score (U2OS [14]) | drug sensitivity score (Vero E6 [15])
1 | COc1cccc2c1C(=O)c1c(O)c3c(c(O)c1C2=O)C[C@@](O)(C(=O)CO)C[C@@H]3O[C@H]1C[C@H](N2CCO[C@H](OC)C2)[C@H](O)[C@H](C)O1 [nemorubicin] | 88.8 | 24.6 | 30.4 | 32.6 | 24.5 | 69.2 | 21.2 | 35.1 | 31.5 | 30 | 55.4 | 0.1 | 6.3 | 3 | 1.5 | 91.8 | 1.3 | 0.9 | 0.3 | 1.3 | 72.6 | 2.4 | 2.8 | 0.8 | 2.7 | 0.002 | 0.0012 | 0.0011 | 0.0025 | 0.0016 | 35.1 | 38.4 | 48 | 44.1 | 46.1
2 | Cc1ccc(S(=O)(=O)OCC(=O)Nc2ccc(C(=O)O)c(O)c2)cc1 [STAT3-inhibitor-VI] | 101 | 93.1 | 90.6 | 90.8 | 99.9 | 102 | 95.1 | 102 | 96.2 | 101 | 102 | 104 | 96.2 | 92.1 | 95.6 | 103 | 96 | 101 | 104 | 99 | 98.3 | 97.6 | 94.1 | 98.9 | 89.8 | > 10 | > 10 | > 10 | > 10 | > 10 | 0 | 0 | 0 | 0 | 0
3 | C[N+](C)(C)CC(O)CC(=O)[O-] (stereo not given) [carnitine-(D/L)] | 105 | 77.6 | 100 | 81.8 | 89.7 | 96.9 | 102 | 109 | 99.9 | 94.3 | 98.1 | 82.5 | 92.1 | 86.3 | 80.9 | 94.1 | 94.4 | 87.2 | 80.6 | 95.9 | 100 | 101 | 91 | 106 | 104 | > 10 | > 10 | > 10 | > 10 | > 10 | 0.7 | 0 | 2.2 | 0 | 0
4 | CN(C)c1ccc(C(=O)NCCCCCCC(=O)NO)cc1 [M-344] | 101 | 99.4 | 103 | 75.6 | 1.5 | 101 | 93.7 | 77.2 | 55.3 | 13.6 | 106 | 92.8 | 80.2 | 37.9 | 0.3 | 99.2 | 94.6 | 93.9 | 47.2 | 1.1 | 97.5 | 101 | 92.1 | 56 | 0 | 1.56 | 0.581 | 0.504 | 0.891 | 1.14 | 9.2 | 11.8 | 14.4 | 11.7 | 10.6
5 | C[C@@H]1CCN(C(=O)CC#N)C[C@@H]1N(C)c1ncnc2[nH]ccc12 | 102 | 103 | 94.4 | 96.9 | 104 | 96.3 | 97.5 | 106 | 112 | 110 | 111 | 94.4 | 105 | 97.7 | 108 | 101 | 103 | 101 | 103 | 96.9 | 98.6 | 94.8 | 97 | 98.3 | 96.1 | > 10 | > 10 | > 10 | > 10 | > 10 | 0 | 0 | 0 | 0 | 0
6 | CC(=O)NCCc1c[nH]c2ccccc12 [N-acetyltryptamine] | 93.5 | 94.7 | 99.4 | 96.5 | 102 | 92.8 | 96 | 94.3 | 105 | 99.4 | 105 | 95.7 | 97.1 | 103 | 104 | 95.4 | 102 | 94.5 | 99.3 | 101 | 97 | 92.4 | 99 | 91.4 | 107 | > 10 | > 10 | > 10 | > 10 | > 10 | 0 | 0 | 0 | 0 | 0
7 | OCc1cccnc1 [nicotinyl-alcohol-tartrate] | 97.8 | 97 | 102 | 96.1 | 106 | 96.6 | 100 | 92.7 | 99.3 | 96.4 | 95.4 | 102 | 91.2 | 104 | 96.1 | 102 | 104 | 96.7 | 100 | 95.5 | 92.6 | 101 | 87.8 | 101 | 91.8 | > 10 | > 10 | > 10 | > 10 | > 10 | 0 | 0 | 0 | 0 | 0
8 | N#Cc1ccc(N(Cc2ccc(Br)cc2)n2cnnc2)cc1 [YM-511] | 108 | 92 | 94.1 | 92 | 88.3 | 95.9 | 97.8 | 92.4 | 97.4 | 99.3 | 104 | 102 | 99.8 | 96.6 | 98 | 104 | 96.4 | 103 | 98.4 | 101 | 103 | 98 | 100 | 106 | 96.6 | > 10 | > 10 | > 10 | > 10 | > 10 | 0.2 | 0 | 0 | 0 | 0
9 | N[C@@H](Cc1c[nH]c2ccccc12)C(=O)O [tryptophan] | 105 | 96.6 | 85.7 | 110 | 97.5 | 106 | 97.1 | 107 | 107 | 103 | 88.3 | 95.1 | 103 | 88.9 | 100 | 97.2 | 101 | 101 | 99.1 | 98.1 | 99.7 | 108 | 94.4 | 91.3 | 99.8 | > 10 | > 10 | > 10 | > 10 | > 10 | 0 | 0 | 0 | 0 | 0
10 | CCOc1cc([C@@H](CS(C)(=O)=O)N2C(=O)c3cccc(NC(C)=O)c3C2=O)ccc1OC [apremilast] | 93.4 | 100 | 98.8 | 97.3 | 106 | 102 | 108 | 89.8 | 99.9 | 108 | 102 | 95 | 101 | 84.1 | 100 | 93.1 | 101 | 97.8 | 92.7 | 99.1 | 104 | 104 | 98.7 | 99.6 | 99.6 | > 10 | > 10 | > 10 | > 10 | > 10 | 0 | 0 | 0 | 0 | 0
11 | CC(C)(C)c1ccc(C(O)CCCN2CCC(C(O)(c3ccccc3)c3ccccc3)CC2)cc1 (stereo not given) [terfenadine] | 77.3 | 100 | 76.3 | 101 | 80.2 | 97.6 | 115 | 97.3 | 104 | 106 | 108 | 117 | 103 | 96.9 | 99.8 | 98.1 | 101 | 96.5 | 99.7 | 97.8 | 107 | 97.3 | 109 | 101 | 100 | > 10 | > 10 | > 10 | > 10 | > 10 | 2.4 | 0 | 0 | 0 | 0
12 | CCCCCCCCN=c1ccn(CCCCCCCCCCn2ccc(=NCCCCCCCC)cc2)cc1 [octenidine] | 98.7 | 97.5 | 101 | 78 | 1 | 106 | 101 | 98.6 | 98.6 | 0.7 | 89.6 | 93.4 | 102 | 65.6 | 2.6 | 95.5 | 104 | 95.4 | 89.9 | 2.7 | 96.8 | 94.7 | 92.5 | 83.7 | 0.1 | 1.65 | 3.07 | 1.27 | 2.31 | 1.91 | 8.9 | 5.7 | 10.2 | 7 | 8.2
13 | CCc1cc(C(N)=S)ccn1 [ethionamide] | 95.7 | 92.7 | 96.5 | 92.6 | 102 | 90.8 | 92.2 | 98.7 | 93 | 95.7 | 100 | 90.6 | 97.9 | 102 | 102 | 97.8 | 94 | 97.1 | 94.7 | 96.3 | 96.7 | 101 | 101 | 91.5 | 99.7 | > 10 | > 10 | > 10 | > 10 | > 10 | 0 | 0 | 0 | 0 | 0
14 | Nc1nc(OCc2ccccc2)c2nc[nH]c2n1 [O6-benzylguanine] | 105 | 95.2 | 98 | 98.7 | 106 | 103 | 89.5 | 107 | 88.1 | 105 | 95.9 | 105 | 96.8 | 108 | 94.6 | 101 | 99.9 | 100 | 97.3 | 104 | 93.6 | 108 | 87.3 | 103 | 90.4 | > 10 | > 10 | > 10 | > 10 | > 10 | 0 | 0 | 0 | 0 | 0
